Reference: US20100298141A1, “SUBSTITUTED PYRIDINE N-OXIDE HERBICIDES” (E. I. DU PONT DE NEMOURS AND COMPANY, priority 2007, published 2010)

Experiments:
bermudagrass = assay: Test C pre-/postemergence test; assay type: in vivo, Cynodon dactylon; conditions: for Plant response rating, Bermudagrass: scale 0 to 100, 0 no effect, 100 complete control
How it was run: (§1)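 Test chemicals were formulated with surfactant in a non-phytotoxic solvent and sprayed both on freshly planted seeds (preemergence) and on 1- to 4-leaf plants of 2–18 cm (postemergence). Flooded-paddy pots received compound directly into 3 cm of standing water, maintained for the test.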

corn = assay: Test A pre-/postemergence greenhouse test; assay type: in vivo, Zea mays; conditions: for Corn plant response rating: 0 to 100 scale
How it was run: (§2)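 Untreated controls served as the reference for visual injury ratings taken about ten days after spraying. The non-phytotoxic solvent/surfactant formulation was applied preemergence to seeded loam and sand and postemergence to plants two to ten cm high.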

giant foxtail [1] = assay: Test C pre-/postemergence test; assay type: in vivo, Setaria faberii; conditions: for Plant response rating, Foxtail, Giant: scale 0 to 100, 0 no effect, 100 complete control
How it was run: as §1

johnsongrass = assay: Test C pre-/postemergence test; assay type: in vivo, Sorghum halepense; conditions: for Plant response rating, Johnsongrass: scale 0 to 100, 0 no effect, 100 complete control
How it was run: as §1

downy brome = assay: Test C pre-/postemergence test; assay type: in vivo, Bromus tectorum; conditions: for Plant response rating, Bromegrass, Downy: scale 0 to 100, 0 no effect, 100 complete control
How it was run: as §1

giant foxtail [2] = assay: Test A pre-/postemergence greenhouse test; assay type: in vivo, Setaria faberi; conditions: for Foxtail, Giant plant response rating: 0 to 100 scale
How it was run: as §2

Surinam grass = assay: Test C pre-/postemergence test; assay type: in vivo, Brachiaria decumbens; conditions: for Surinam Grass plant response rating: preemergence, scale 0 (no effect) to 100 (complete control); for Plant response rating, Surinam Grass: scale 0 to 100, 0 no effect, 100 complete control
How it was run: as §1

barnyardgrass = assay: Test C flooded paddy test; assay type: in vivo, Echinochloa crus-galli; conditions: Flood
How it was run: (§3)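 Flooded 3 cm over soil; compound into paddy water; depth kept constant. Greenhouse 13–15 d.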

morningglory = assay: Test C pre-/postemergence test; assay type: in vivo, Ipomoea coccinea; conditions: for Plant response rating, Morningglory: Postemergence, scale 0 to 100, 0 no effect, 100 complete control
How it was run: as §1

wheat = assay: Test A pre-/postemergence greenhouse test; assay type: in vivo, Triticum aestivum; conditions: for Wheat plant response rating: 0 to 100 scale
How it was run: as §2

catchweed bedstraw = assay: Test C pre-/postemergence test; assay type: in vivo, Galium aparine
How it was run: as §1

velvetleaf = assay: Test A pre-/postemergence greenhouse test; assay type: in vivo, Abutilon theophrasti; conditions: for Velvetleaf plant response rating: 0 to 100 scale
How it was run: as §2

pigweed = assay: Test C pre-/postemergence test; assay type: in vivo, Amaranthus retroflexus; conditions: for Plant response rating, Pigweed: scale 0 to 100, 0 no effect, 100 complete control
How it was run: as §1

lambsquarters = assay: Test C pre-/postemergence test; assay type: in vivo, Chenopodium album; conditions: for Plant response rating, Lambsquarters: scale 0 to 100, 0 no effect, 100 complete control
How it was run: as §1

rice = assay: Test C flooded paddy test; assay type: in vivo, Oryza sativa; conditions: Flood
How it was run: as §3

soybean = assay: Test C pre-/postemergence test; assay type: in vivo, Glycine max; conditions: for Plant response rating, Soybean: scale 0 to 100, 0 no effect, 100 complete control
How it was run: as §1

crabgrass = assay: Test C pre-/postemergence test; assay type: in vivo, Digitaria sanguinalis; conditions: for Plant response rating, Crabgrass, Large: scale 0 to 100, 0 no effect, 100 complete control
How it was run: as §1

[3] = 31 g ai/ha, Preemergence, scale 0 to 100
[4] = 62 g ai/ha, preemergence, scale 0 (no effect) to 100 (complete control)
[5] = preemergence, 125 g ai/ha, scale 0 (no effect) to 100 (complete control)
[6] = Postemergence, 125 g ai/ha, 0 is no effect, 100 is complete control
[7] = Postemergence, 500 g ai/ha, 0 is no effect, 100 is complete control
[8] = Preemergence, 125 g ai/ha, 0 no effect, 100 complete control
[9] = Preemergence, 500 g ai/ha, 0 to 100 scale where 0 is no effect and 100 is complete control
[10] = 31 g ai/ha, scale 0 to 100 (0 no effect, 100 complete control)
[11] = 62 g ai/ha, scale 0 to 100, 0 no effect, 100 complete control, 13 to 15 days
[12] = 125 g ai/ha, scale 0 to 100, 0 no effect, 100 complete control, 13 to 15 days
[13] = 250 g ai/ha, scale 0 to 100 (0 no effect, 100 complete control)

Structure (SMILES): Cc1cc[n+]([O-])c(S(=O)(=O)Cc2c(C(F)(F)F)nn(C)c2OC(F)F)c1 [Compound 2]
- Bermudagrass plant response rating (bermudagrass; [3]): 100
- Bermudagrass plant response rating (bermudagrass; [4]): 100
- Plant response rating (0 to 100), Bermudagrass (bermudagrass; Postemergence, 31 g ai/ha): 0
- Plant response rating, Bermudagrass (bermudagrass; Postemergence, 62 g ai/ha): 0
- Plant response rating, Bermudagrass (bermudagrass; Postemergence, 125 g ai/ha): 0
- Plant response rating, Bermudagrass (bermudagrass; Postemergence, 250 g ai/ha): 40
- Plant response rating (0 to 100), Bermudagrass (bermudagrass; Preemergence, 250 g ai/ha): 100
- Bermudagrass plant response rating (bermudagrass; [5]): 100
- Corn plant response rating (corn; [6]): 60
- Corn plant response rating (corn; [7]): 60
- Corn plant response rating (corn; [8]): 0
- Plant response rating, Corn (corn; [9]): 40
- Foxtail, Giant plant response rating (giant foxtail [1]; [3]): 65
- Foxtail, Giant plant response rating (giant foxtail [1]; [4]): 90
- Plant response rating (0 to 100), Foxtail, Giant (giant foxtail [1]; Postemergence, 31 g ai/ha): 0
- Plant response rating, Foxtail, Giant (giant foxtail [1]; Postemergence, 62 g ai/ha): 0
- Plant response rating, Foxtail, Giant (giant foxtail [1]; Postemergence, 125 g ai/ha): 0
- Plant response rating, Foxtail, Giant (giant foxtail [1]; Postemergence, 250 g ai/ha): 50
- Plant response rating (0 to 100), Foxtail, Giant (giant foxtail [1]; Preemergence, 250 g ai/ha): 100
- Foxtail, Giant plant response rating (giant foxtail [1]; [5]): 100
- Johnsongrass plant response rating (johnsongrass; [3]): 30
- Johnsongrass plant response rating (johnsongrass; [4]): 95
- Plant response rating (0 to 100), Johnsongrass (johnsongrass; Postemergence, 31 g ai/ha): 0
- Plant response rating, Johnsongrass (johnsongrass; Postemergence, 62 g ai/ha): 0
- Plant response rating, Johnsongrass (johnsongrass; Postemergence, 125 g ai/ha): 0
- Plant response rating, Johnsongrass (johnsongrass; Postemergence, 250 g ai/ha): 0
- Plant response rating (0 to 100), Johnsongrass (johnsongrass; Preemergence, 250 g ai/ha): 100
- Johnsongrass plant response rating (johnsongrass; [5]): 100
- Bromegrass, Downy plant response rating (downy brome; [3]): 0
- Bromegrass, Downy plant response rating (downy brome; [4]): 40
- Plant response rating (0 to 100), Bromegrass, Downy (downy brome; Postemergence, 31 g ai/ha): 0
- Plant response rating, Bromegrass, Downy (downy brome; Postemergence, 62 g ai/ha): 0
- Plant response rating, Bromegrass, Downy (downy brome; Postemergence, 125 g ai/ha): 0
- Plant response rating, Bromegrass, Downy (downy brome; Postemergence, 250 g ai/ha): 0
- Plant response rating (0 to 100), Bromegrass, Downy (downy brome; Preemergence, 250 g ai/ha): 45
- Bromegrass, Downy plant response rating (downy brome; [5]): 45
- Foxtail, Giant plant response rating (giant foxtail [2]; [6]): 80
- Foxtail, Giant plant response rating (giant foxtail [2]; [7]): 90
- Foxtail, Giant plant response rating (giant foxtail [2]; [8]): 100
- Plant response rating, Foxtail, Giant (giant foxtail [2]; [9]): 100
- Surinam Grass plant response rating (Surinam grass; 62 g ai/ha): 100
- Plant response rating (0 to 100), Surinam Grass (Surinam grass; Postemergence, 31 g ai/ha): 0
- Plant response rating (0 to 100), Surinam Grass (Surinam grass; Postemergence, 62 g ai/ha): 0
- Plant response rating, Surinam Grass (Surinam grass; Postemergence, 125 g ai/ha): 0
- Plant response rating, Surinam Grass (Surinam grass; Postemergence, 250 g ai/ha): 0
- Plant response rating (0 to 100), Surinam Grass (Surinam grass; Preemergence, 250 g ai/ha): 100
- Surinam Grass plant response rating (Surinam grass; 125 g ai/ha): 100
- Plant response rating, Barnyardgrass (barnyardgrass; [10]): 0
- Plant response rating, Barnyardgrass (barnyardgrass; [11]): 0
- Plant response rating, Barnyardgrass (barnyardgrass; [12]): 55
- Plant response rating, Barnyardgrass (barnyardgrass; [13]): 85
- Morningglory plant response rating (morningglory; [3]): 85
- Morningglory plant response rating (morningglory; [4]): 100
- Plant response rating, Morningglory (morningglory; 62 g ai/ha): 5
- Plant response rating, Morningglory (morningglory; 125 g ai/ha): 5
- Plant response rating, Morningglory (morningglory; 250 g ai/ha): 30
- Plant response rating (0 to 100), Morningglory (morningglory; Preemergence, 250 g ai/ha): 100
- Morningglory plant response rating (morningglory; [5]): 100
- Wheat plant response rating (wheat; [6]): 60
- Wheat plant response rating (wheat; [7]): 70
- Wheat plant response rating (wheat; [8]): 40
- Plant response rating, Wheat (wheat; [9]): 70
- Galium plant response rating (catchweed bedstraw; [3]): 85
- Galium plant response rating (catchweed bedstraw; [4]): 95
- Plant response rating (0 to 100), Galium (catchweed bedstraw; Preemergence, 250 g ai/ha): 100
- Galium plant response rating (catchweed bedstraw; [5]): 100
- Velvetleaf plant response rating (velvetleaf; [6]): 60
- Velvetleaf plant response rating (velvetleaf; [7]): 80
- Velvetleaf plant response rating (velvetleaf; [8]): 70
- Plant response rating, Velvetleaf (velvetleaf; [9]): 90
- Pigweed plant response rating (pigweed; [3]): 100
- Pigweed plant response rating (pigweed; [4]): 100
- Plant response rating (0 to 100), Pigweed (pigweed; Postemergence, 31 g ai/ha): 0
- Plant response rating (0 to 100), Pigweed (pigweed; Postemergence, 62 g ai/ha): 0
- Plant response rating, Pigweed (pigweed; Postemergence, 125 g ai/ha): 0
- Plant response rating, Pigweed (pigweed; Postemergence, 250 g ai/ha): 0
- Plant response rating (0 to 100), Pigweed (pigweed; Preemergence, 250 g ai/ha): 100
- Pigweed plant response rating (pigweed; [5]): 100
- Lambsquarters plant response rating (lambsquarters; [3]): 0
- Lambsquarters plant response rating (lambsquarters; [4]): 70
- Plant response rating (0 to 100), Lambsquarters (lambsquarters; Postemergence, 31 g ai/ha): 0
- Plant response rating, Lambsquarters (lambsquarters; Postemergence, 62 g ai/ha): 0
- Plant response rating, Lambsquarters (lambsquarters; Postemergence, 125 g ai/ha): 0
- Plant response rating, Lambsquarters (lambsquarters; Postemergence, 250 g ai/ha): 0
- Plant response rating (0 to 100), Lambsquarters (lambsquarters; Preemergence, 250 g ai/ha): 100
- Lambsquarters plant response rating (lambsquarters; [5]): 100
- Plant response rating, Rice (rice; [10]): 0
- Plant response rating, Rice (rice; [11]): 10
- Plant response rating, Rice (rice; [12]): 45
- Plant response rating, Rice (rice; [13]): 70
- Plant response rating (0 to 100), Soybean (soybean; Postemergence, 31 g ai/ha): 40
- Plant response rating (0 to 100), Soybean (soybean; Postemergence, 62 g ai/ha): 50
- Plant response rating, Soybean (soybean; Postemergence, 125 g ai/ha): 50
- Plant response rating, Soybean (soybean; Postemergence, 250 g ai/ha): 50
- Plant response rating (0 to 100), Soybean (soybean; Preemergence, 250 g ai/ha): 70
- Soybean plant response rating (soybean; [5]): 50
- Crabgrass, Large plant response rating (crabgrass; [3]): 70
- Crabgrass, Large plant response rating (crabgrass; [4]): 100
- Plant response rating (0 to 100), Crabgrass, Large (crabgrass; Postemergence, 31 g ai/ha): 0
- Plant response rating, Crabgrass, Large (crabgrass; Postemergence, 62 g ai/ha): 0
- Plant response rating, Crabgrass, Large (crabgrass; Postemergence, 125 g ai/ha): 0
- Plant response rating, Crabgrass, Large (crabgrass; Postemergence, 250 g ai/ha): 40
- Plant response rating (0 to 100), Crabgrass, Large (crabgrass; Preemergence, 250 g ai/ha): 100
- Crabgrass, Large plant response rating (crabgrass; [5]): 100
